Data on four compounds can be found in US7863350B2, “Food preservation compositions and methods of use thereof” (priority 2007, dated 2011).

Values joined by “and” are separate entries in the source; they are usually repeats but may differ in a detail not shown here. Equal entries are not always repeated.

In one assay the test system is yeast and mold. The conditions noted are these: 4° C., up to 10 days.
Assay [1] concerns aerobic microflora. Description: Aerobic plate count in the absorbent/juice from trays after 10 days (Example 3). In kind it is cell-based. The conditions noted are these: about 4° C. Here is the method: (§1) Inoculated and uninoculated tomato slices were analyzed at 0, 5 and 10 days. […] The plates were incubated at 37° C. for 18 hr and typical Salmonella colonies counted. The absorbent (fluid in case of Control 1 trays) was analyzed for Salmonella and Aerobic Plate Count by plating appropriate dilution of the gel/fluid on MacConkey agar plates and Plate Count Agar.

Assay [2] relates to Salmonella sp. Description: Survival of Salmonella on sliced tomato packaged with volatile antimicrobials at about 4° C. (Example 2). In kind it is cell-based. The conditions noted are these: for effectiveness against Salmonella on slices: 10 days, origanum 150 μl, basil 75 μl, chlorine dioxide in absorbent or as spray, cyclodextrine forms high level, cinnamaldehyde 35 μl with spray. The procedure: The effect of volatile antimicrobials on the survival of Salmonella sp. in packaged sliced tomato was determined. The antimicrobials tested were origanum oil, basil oil, cyclodextrine cinnamaldehyde, chlorine dioxide as spray and in absorbent, and allyl isothiocyanate in cyclodextrine. The combinations of cinnamaldehyde with chlorine dioxide and allyl isothiocyanate in cyclodextrine with cinnamaldehyde were also tested.
(§2) Slices were inoculated with 5 Salmonella strains that included S. poona (cantaloupe associated outbreak), S. stanley H 1256 (Alfafa sprout associated outbreak), S. baildon (tomato associated outbreak), S. typhimurium DT 104 (multiple antibiotic resistant) and S. montevideo (tomato associated outbreak). […] Then, the specified volatile antimicrobials were pipetted into the wells of each package. The inoculated packages were stored at 4±1° C. for 10 days.
(§3) Inoculated and uninoculated tomato slices were analyzed at days 0 and 10. […] The diluted samples were plated on MacCkonkey agar plates. The plates were incubated at 37° C. for 18 hr and typical Salmonella colonies counted.

The test system of assay [3] is Salmonella. Nature of the assay: Location of viable Salmonella on tomato slices after storage with antimicrobials. The class given is cell-based. The conditions noted are these: about 4° C.; for viable Salmonella in Portion 1: Table 5. The procedure:
as §2, §3
Tomato slices were inoculated with Salmonella between slices and placed in trays. […] The day 0 data (data is taken the day after inoculation) presented in Table 4 indicates no difference in the location of the inoculum between the Control 1 trays and the Control 2 tray at “0” time. After 10 days of storage, slices still had Salmonella distributed throughout; however, the distribution differed between Control 1 trays and Control 2 trays. The Salmonella in the Control 2 trays were located primarily at the top most portion of the slice (average of 72% of Salmonella on the top skin), whereas the Control 1 trays had high numbers at the bottom of the slice (average of 41% in bottom two portions). The total number of Salmonella increased on the slices to a similar extent for both tray types (Table 1).

The subject of assay [4] is Salmonella sp. Nature of the assay: Survival of Salmonella on sliced tomatoes with low levels of antimicrobials at 4° C. (Example 3). The conditions noted are these: for Survival of Salmonella on sliced tomatoes, 5 days: about 4° C. The class given is cell-based. The procedure: The effect of low levels of specified antimicrobials on survival of Salmonella sp. in packaged sliced tomato under refrigeration (4±1° C.) was determined. The volatile antimicrobials tested were chlorine dioxide, allyl isothiocyanate cyclodextrine, origanum cyclodextrine, cinnamaldehyde cyclodextrine and basil cyclodextrine.
Slices were inoculated with 5 Salmonella strains that included S. poona (cantaloupe associated outbreak), S. stanley H 1256 (Alfafa sprout associated outbreak), S. baildon (tomato associated outbreak), S. typhimurium DT 104 (multiple antibiotic resistant) and S. montevideo (tomato associated outbreak). […] The inoculated packages were stored at 4±1° C. for 10 days.
as §1

In assay [5] the test system is Salmonella. Description: Salmonella in the absorbent in trays after 11 days (Example 2). The class given is cell-based. The conditions noted are these: about 4° C. Here is the method: (§4) The absorbent in the trays was analyzed for aerobic plate count and salmonella levels at the conclusion of the study. The data was obtained on day 11.
The subject of assay [6] is Salmonella. Nature of the assay: Salmonella counts in the absorbent/juice from trays after 10 days (Example 3). The conditions noted are these: about 4° C. In kind it is cell-based. The procedure:
as §1

Assay [7] deals with aerobic microflora. Nature of the assay: Aerobic Plate Count of the absorbent in trays after 11 days (Example 2). In kind it is cell-based. The conditions noted are these: for growth inhibition (APC) in the absorbent over the control absorbent: about 4° C. Here is the method:
as §4

The subject of the next assay is Salmonella spp. Nature of the assay: Survival of Salmonella spp. in packaged sliced tomato with volatile oils at about 11° C. In kind it is cell-based. The conditions noted are these: for Salmonella on sliced tomatoes, Day 9: 9 days at about 11° C. The text has this: The effect of origanum, basil, and cinnamaldehyde oils on the survival of Salmonella sp. in packaged sliced tomato was studied. Five Salmonella serotypes were used namely, S. poona (cantaloupe associated outbreak), S. stanley H 1256 (Alfa Alfa sprout associated outbreak), S. baildon (tomato associated outbreak), S. typhimurium DT 104 and S. montevideo (tomato associated outbreak). Five μl of the cocktail was inoculated on top of three tomato slices in package to have a target inoculum of 5×10^6 CFU/slice. Then, 12, 35, and 75 μl of each volatile antimicrobial agent were pipetted into the wells of the separate packages. The packages were stored at 11° C. for 9 days. After 8 days of incubation mold was observed on some slices in some packages.
The inoculated tomato slices were analyzed at day 0 and 9. Each slice was mixed with 90 ml 0.1% peptone water and stomached for 1 min. Next, 1 ml of the stomached material was diluted in 9 ml 0.1% peptone and spiral plated on MacCkonkey agar plates. The plates were incubated at 37° C. for 18 hr.
The data was analyzed by the General Linear Method using SAS 9.1. […] All results are for Day 9 except for the control. All day 0 counts were the same as the control. […] The other results include both the volatile antimicrobial agent and absorbent materials.

Assay [8] relates to pathogenic and aerobic microorganisms.

Turning to `O=C(O)CC(O)(CC(=O)O)C(=O)O` [Citric acid, citric acid], the “yeast and mold growth in tomato juice in gel” value with yeast and mold is given as “little effect”.
Regarding `[O][Cl+][O-]` [Chlorine Dioxide, chlorine dioxide], the “Aerobic Plate Count in the absorbent/juice” value in the assay on aerobic microflora [1] (0.024 g per tray) is reported as less than 2.3 Log CFU/g; with aerobic microflora [1] (0.052 g per tray), 4.62 Log CFU/g; in the assay on aerobic microflora [1] (0.112 g per tray), 5.1 Log CFU/g; in the assay with aerobic microflora [1] (0.25 g per tray), less than 2.3 Log CFU/g; in the assay with aerobic microflora [1] (0.4 g per tray), less than 2.3 Log CFU/g. Besides, the “effectiveness against Salmonella on slices” value is on record as “most effective” in the assay with Salmonella sp. [2] and “little effect” with Salmonella sp. [2] (listed as Chlorine dioxide spray). Also, the “Survival of Salmonella on sliced tomatoes (Table 2)” value was determined as 4.88 Log CFU/Slice in the assay with Salmonella sp. [2] (Day 0) and 4.32 Log CFU/Slice with Salmonella sp. [2] (Day 10, chlorine dioxide in absorbent, amount not given). Further, the “Survival of Salmonella on sliced tomatoes (Table 3)” value in the assay on Salmonella sp. [2] (Day 0, spray 2.54 ml/tray) is given as 5.27^bcd Log CFU/Slice; in the assay on Salmonella sp. [2] (Day 10, spray 2.54 ml/tray), 5.17^cde Log CFU/Slice. In the assay with Salmonella [3] (Table 4, Day 10, chlorine dioxide, amount not given), the “viable Salmonella in Portion 1 (top portion of skin)” value is 70 % of total survivors and 69 % of total survivors and 81 % of total survivors. In the assay on Salmonella [3] (Day 0, spray, listed as Chlorine Dioxide Spray), the “viable Salmonella in Portion 1” value is 56 % of total survivors and 55 % of total survivors and 79 % of total survivors. Further, the “Survival of Salmonella on sliced tomatoes, 5 days” value with Salmonella sp. [4] (0.024 g per tray) is on record as 6.32 Log CFU/g; with Salmonella sp. [4] (0.052 g per tray), 5.61 Log CFU/g; with Salmonella sp. [4] (0.112 g per tray), 5.90 Log CFU/g; with Salmonella sp. [4] (0.25 g per tray), 5.65 Log CFU/g; in the assay on Salmonella sp. [4] (0.4 g per tray), 5.96 Log CFU/g. In addition, the “Survival of Salmonella on sliced tomatoes, 10 days” value with Salmonella sp. [4] (10 days, 4° C., 0.024 g per tray) stood at 5.89 Log CFU/g; with Salmonella sp. [4] (10 days, 4° C., 0.052 g per tray), 5.65 Log CFU/g; in the assay with Salmonella sp. [4] (10 days, 4° C., 0.112 g per tray), 5.42 Log CFU/g; with Salmonella sp. [4] (10 days, 4° C., 0.25 g per tray), 5.32 Log CFU/g; with Salmonella sp. [4] (10 days, 4° C., 0.4 g per tray), 5.15 Log CFU/g. In the assay on Salmonella sp. [4] (10 days, 4° C., added to absorbent), the “effect on Salmonella on tomato slices” value is given as “significantly reduced levels”. The “Salmonella in the absorbent in trays (Table 8)” value in the assay on Salmonella [5] (chlorine dioxide, amount not given) came to 1.40 Log CFU/ml. For the same compound, in the assay with Salmonella [5] (spray), the “Salmonella in the absorbent in trays (Table 9)” value is given as 2.21 Log CFU/ml. Moreover, the “Salmonella in the absorbent/juice” value with Salmonella [6] (0.024 g per tray) amounted to 3.26 Log CFU/g; in the assay with Salmonella [6] (0.052 g per tray), 4.39 Log CFU/g; with Salmonella [6] (0.112 g per tray), 4.43 Log CFU/g; with Salmonella [6] (0.4 g per tray), 3.77 Log CFU/g. Moreover, the “killing of Salmonella that dripped into the absorbent” value in the assay on Salmonella [6] (AITC at 36) is recorded as “reduced the pathogen numbers”. For the same compound, the “Aerobic Plate Count of the absorbent in trays (Table 6)” value in the assay on aerobic microflora [7] (4° C., chlorine dioxide, amount not given) turned out to be 4.63 Log CFU/ml. The “growth inhibition (APC) in the absorbent over the control absorbent” value is on record as “did not produce much additional growth inhibition” in the assay on aerobic microflora [7] and “increased growth inhibition” with aerobic microflora [7] (listed as chlorine dioxide spray).
Turning to `O=CC=Cc1ccccc1` [Cinnamaldehyde, cinnamaldehyde], the “Salmonella on sliced tomatoes, Day 9” value in the assay on Salmonella spp. (12 μl per package) was found to be 5.76 ± 0.34 Log CFU/Slice; in the assay with Salmonella spp. (35 μl per package), 5.34 ± 0.02 Log CFU/Slice. Moreover, the “Salmonella population” value in the assay with Salmonella spp. (9 days, 11° C., origanum 35 or 75, basil 12, cinnamaldehyde 12 and 35 μl) is reported as “declined significantly”. The “relative antimicrobial potency” value in the assay on Salmonella spp. (among origanum, basil and cinnamaldehyde oils) was “most potent antimicrobial”. The “Survival of Salmonella on sliced tomatoes (Table 3)” value in the assay on Salmonella sp. [2] (Day 10, 35 μl) was 4.78^fg Log CFU/Slice; in the assay with Salmonella sp. [2] (Day 10, 75 μl) it was 4.67^fg Log CFU/Slice. Moreover, the “viable Salmonella in Portion 1” value in the assay with Salmonella [3] (Day 10, 75 μl) is 75 % of total survivors and 73 % of total survivors and 87 % of total survivors and 91 % of total survivors. Further, the results for the “Salmonella in the absorbent in trays (Table 9)” value in the assay on Salmonella [5] (35 μl) and in the assay with Salmonella [5] (75 μl) were 2.83 Log CFU/ml and 2.04 Log CFU/ml, respectively. Further, the “growth inhibition (APC) in the absorbent over the control absorbent” value in the assay on aerobic microflora [7] was “little growth inhibition”.
Take `C/C=C/C=C/C(=O)[O-].[K+]` [Potassium sorbate, potassium sorbate]: in assay [8], the “effectiveness of higher vs lower levels” value is given as “marginally more effective”; the “inhibition of growth of pathogenic and aerobic microorganisms in the gel/tomato juice mixture” value was “effective at inhibiting growth”. The “yeast and mold growth in tomato juice in gel” value in the assay with yeast and mold is recorded as “allows little growth”. For the same compound, the “bacteria in tomato juice in gel” value in the assay on total bacterial count (4° C., up to 10 days) is reported as “kills bacteria”. In the assay with total bacterial count (10 day period, 4° C. storage temperature), the “preservation of the gel / growth of yeast, mold and bacteria compared to the control” value is recorded as “adequate to preserve the gel”.
